{"source": "patent US7662789B2", "about": "“Peptide substance restoring myocardium function” (“Access Bioscience” CJSC, priority 2004, dated 2010)", "tested_on": "male guinea pigs", "assay": "Chronic toxicity, 6 months intramuscular in guinea pigs", "protocol": "Common toxicity of Ala-Glu-Asp-Arg (SEQ ID NO:1) tetrapeptide was studied in compliance with the requirements stated in “Manual for experimental (pre-clinical) study of new pharmaceutical substances” (2000): acute toxicity in case of single administration of the substance, as well as sub-acute and chronic toxicity in case of long-term administration of the tetrapeptide.\nThe studies of chronic toxicity were conducted for 6 months, basing on the duration of the recommended clinical administration of the preparation, on 96 male guinea pigs with body weight of 300-340 g. The experimental animals received the tetrapeptide daily, once a day, intramuscularly, for 6 months in the doses of 1 μg/kg, 0.1 mg/kg and 1 mg/kg in 0.5 ml of 0.9% NaCl solution. The control animals received 0.9% NaCl solution in the same volume and by the same schedule. Common methods were used for the identification of the quantity of erythrocytes, hemoglobin, reticulocytes, thrombocytes, leukocytes, as well as of the leukocyte formula, erythrocyte sedimentation rate (ESR) and erythrocyte resistance in the peripheric blood of the animals. Alongside with this general protein content in the blood serum was estimated by Lowry's method, as well as of potassium and sodium using the method of plasma spectrophotometry. After the completion of the experiment the pathomorphological study of the brain and spinal cord, spinal cord ganglia, thyroid gland, parathyroid glands, adrenal glands, testis, pituitary gland, heart, lungs, aorta, liver, kidney, urinary bladder, pancreas, stomach, small intestine, large intestine, thymus, spleen, lymph nodes and bone marrow was conducted.", "note": "Where a SMILES comes first, the peptide text is derived from it."}
{"smiles": "C[C@H](N)C(=O)N[C@@H](CCC(=O)O)C(=O)N[C@@H](CC(=O)O)C(=O)N[C@@H](CCCNC(=N)N)C(=O)O", "note": "[Tetrapeptide, L-alanyl-L-glutamyl-L-aspartyl-L-arginine] (H-AEDR-OH)", "values": [{"measurement": "Basophils", "setting": "1 μg/kg, 3 months", "result": "0.69 ± 0.05", "unit": "%"}, {"measurement": "ESR", "setting": "1 μg/kg, 3 months", "result": "1.87 ± 0.07", "unit": "mm/hour"}, {"measurement": "Eosinophils", "setting": "1 μg/kg, 3 months", "result": "0.64 ± 0.04", "unit": "%"}, {"measurement": "Erythrocyte resistance, minimum", "setting": "1 μg/kg, 3 months", "result": "0.33 ± 0.02", "unit": "% NaCl"}, {"measurement": "Erythrocytes", "setting": "1 μg/kg, 3 months", "result": "5.4 ± 0.2 ×10^12/l"}, {"measurement": "General protein in the blood serum", "setting": "1 μg/kg, 3 months", "result": "72.6 ± 3.3", "unit": "g/L"}, {"measurement": "Hemoglobin", "setting": "1 μg/kg, 3 months", "result": "13.8 ± 1.2"}, {"measurement": "Leukocytes", "setting": "1 μg/kg, 3 months", "result": "11.2 ± 0.8 ×10^9/l"}, {"measurement": "Lymphocytes", "setting": "1 μg/kg, 3 months", "result": "50.7 ± 2.4", "unit": "%"}, {"measurement": "Monocytes", "setting": "1 μg/kg, 3 months", "result": "2.4 ± 0.03", "unit": "%"}, {"measurement": "Potassium in the blood serum", "setting": "1 μg/kg, 3 months", "result": "5.3 ± 1.8", "unit": "mmol/L"}, {"measurement": "Reticulocytes", "setting": "1 μg/kg, 3 months", "result": "1.2 ± 0.07", "unit": "%"}, {"measurement": "Segmented neutrophils", "setting": "1 μg/kg, 3 months", "result": "44.9 ± 2.5", "unit": "%"}, {"measurement": "Sodium in the blood serum", "setting": "1 μg/kg, 3 months", "result": "154.8 ± 6.8", "unit": "mmol/L"}, {"measurement": "Stab neutrophils", "setting": "1 μg/kg, 3 months", "result": "0.27 ± 0.07", "unit": "%"}, {"measurement": "Thrombocytes", "setting": "1 μg/kg, 3 months", "result": "143.6 ± 8.4 ×10^9/l"}, {"measurement": "Basophils", "setting": "1 μg/kg, 6 months", "result": "0.71 ± 0.05", "unit": "%"}, {"measurement": "ESR", "setting": "1 μg/kg, 6 months", "result": "2.05 ± 0.04", "unit": "mm/hour"}, {"measurement": "Eosinophils", "setting": "1 μg/kg, 6 months", "result": "0.75 ± 0.08", "unit": "%"}, {"measurement": "Erythrocyte resistance, maximum", "setting": "1 μg/kg, 6 months", "result": "0.44 ± 0.04", "unit": "% NaCl"}, {"measurement": "Erythrocyte resistance, minimum", "setting": "1 μg/kg, 6 months", "result": "0.35 ± 0.05", "unit": "% NaCl"}, {"measurement": "Erythrocytes", "setting": "1 μg/kg, 6 months", "result": "5.2 ± 0.4 ×10^12/l"}, {"measurement": "General protein in the blood serum", "setting": "1 μg/kg, 6 months", "result": "73.1 ± 3.6", "unit": "g/L"}, {"measurement": "Hemoglobin", "setting": "1 μg/kg, 6 months", "result": "14.2 ± 0.6"}, {"measurement": "Leukocytes", "setting": "1 μg/kg, 6 months", "result": "11.9 ± 0.5 ×10^9/l"}, {"measurement": "Lymphocytes", "setting": "1 μg/kg, 6 months", "result": "52.7 ± 2.2", "unit": "%"}, {"measurement": "Monocytes", "setting": "1 μg/kg, 6 months", "result": "2.5 ± 0.05", "unit": "%"}, {"measurement": "Potassium in the blood serum", "setting": "1 μg/kg, 6 months", "result": "5.4 ± 2.2", "unit": "mmol/L"}, {"measurement": "Reticulocytes", "setting": "1 μg/kg, 6 months", "result": "1.3 ± 0.08", "unit": "%"}, {"measurement": "Segmented neutrophils", "setting": "1 μg/kg, 6 months", "result": "43.4 ± 3.2", "unit": "%"}, {"measurement": "Sodium in the blood serum", "setting": "1 μg/kg, 6 months", "result": "154.6 ± 6.9", "unit": "mmol/L"}, {"measurement": "Stab neutrophils", "setting": "1 μg/kg, 6 months", "result": "0.36 ± 0.05", "unit": "%"}, {"measurement": "Thrombocytes", "setting": "1 μg/kg, 6 months", "result": "144.9 ± 9.8 ×10^9/l"}, {"measurement": "Chronic toxicity, side effects", "setting": "6 months i.m. daily, 1 μg/kg, 0.1 mg/kg, 1 mg/kg, 100-1000 times the therapeutic doses", "result": "absence of side effects"}, {"measurement": "General status, blood indices, internal organs, cardiovascular, respiratory, liver and kidney functions", "setting": "long-term administration", "result": "no pathologic changes"}]}
